Assays:
[1] = DRUGMATRIX: Glutamate, NMDA, Agonism radioligand binding (ligand: [3H] CGP-39653); format: cell membranes, Rattus norvegicus, Wistar, Cerebral cortex, Membrane; details: Not Active = under 50% inhibition at 10 µM
Melanocortin receptor 5 = Melanocortin receptor 5 (Homo sapiens, UniProt P33032); format: cell membranes, HEK293, Membrane; details: hek293; further: in other assays of this panel Not Active means under 50% inhibition at 10 µM
[2] = molecular target: Delta-type opioid receptor (Homo sapiens, UniProt P41143); format: cell membranes, HEK293, Membrane; details: hek293; further: in other assays of this panel Not Active means under 50% inhibition at 10 µM
Delta-type opioid receptor, sequence (P41143 whole entry): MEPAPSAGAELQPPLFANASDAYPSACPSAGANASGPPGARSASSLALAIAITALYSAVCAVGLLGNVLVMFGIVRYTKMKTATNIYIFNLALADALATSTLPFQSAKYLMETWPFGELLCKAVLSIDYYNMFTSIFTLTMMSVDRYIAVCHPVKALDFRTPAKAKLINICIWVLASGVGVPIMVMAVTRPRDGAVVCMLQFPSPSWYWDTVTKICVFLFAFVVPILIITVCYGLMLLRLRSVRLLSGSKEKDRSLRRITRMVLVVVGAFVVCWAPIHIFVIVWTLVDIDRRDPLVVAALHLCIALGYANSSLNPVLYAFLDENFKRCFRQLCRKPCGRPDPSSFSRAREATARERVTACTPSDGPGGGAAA

Cytochrome P450 2D6 = Cytochrome P450 2D6 (Homo sapiens, UniProt P10635); details: bti-tn-5b1-4; further: in other assays of this panel Not Active means under 50% inhibition at 10 µM
Cytochrome P450 2D6, sequence (P10635 whole entry): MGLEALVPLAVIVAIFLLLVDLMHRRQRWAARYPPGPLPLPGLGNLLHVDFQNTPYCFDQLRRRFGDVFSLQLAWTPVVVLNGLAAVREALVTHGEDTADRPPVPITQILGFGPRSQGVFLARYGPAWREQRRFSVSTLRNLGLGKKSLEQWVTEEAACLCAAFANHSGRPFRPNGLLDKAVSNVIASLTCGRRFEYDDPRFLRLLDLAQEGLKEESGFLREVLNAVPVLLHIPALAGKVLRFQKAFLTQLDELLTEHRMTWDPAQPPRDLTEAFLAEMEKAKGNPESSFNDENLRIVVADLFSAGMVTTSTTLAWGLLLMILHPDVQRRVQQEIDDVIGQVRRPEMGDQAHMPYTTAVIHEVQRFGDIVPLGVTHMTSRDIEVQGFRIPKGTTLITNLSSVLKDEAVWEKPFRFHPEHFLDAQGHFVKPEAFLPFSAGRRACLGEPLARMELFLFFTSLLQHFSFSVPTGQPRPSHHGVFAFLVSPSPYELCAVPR

[3] = DRUGMATRIX: Platelet-Derived Growth Factor (PDGF) radioligand binding (ligand: [125I] PDGF); format: cell-based; details: nih3t3; Not Active = under 50% inhibition at 10 µM
[4] = molecular target: Tyrosine-protein kinase Fyn (Homo sapiens, UniProt P06241); experiment: biochemical; format: cell-based, Insect cells;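 further: enzymatic inhibition of Fyn kinase activity measured with Poly(Glu:Tyr) as the phosphorylation substrate; in other assays of this panel Not Active means under 50% inhibition at 10 µM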
Tyrosine-protein kinase Fyn, sequence (P06241 whole entry): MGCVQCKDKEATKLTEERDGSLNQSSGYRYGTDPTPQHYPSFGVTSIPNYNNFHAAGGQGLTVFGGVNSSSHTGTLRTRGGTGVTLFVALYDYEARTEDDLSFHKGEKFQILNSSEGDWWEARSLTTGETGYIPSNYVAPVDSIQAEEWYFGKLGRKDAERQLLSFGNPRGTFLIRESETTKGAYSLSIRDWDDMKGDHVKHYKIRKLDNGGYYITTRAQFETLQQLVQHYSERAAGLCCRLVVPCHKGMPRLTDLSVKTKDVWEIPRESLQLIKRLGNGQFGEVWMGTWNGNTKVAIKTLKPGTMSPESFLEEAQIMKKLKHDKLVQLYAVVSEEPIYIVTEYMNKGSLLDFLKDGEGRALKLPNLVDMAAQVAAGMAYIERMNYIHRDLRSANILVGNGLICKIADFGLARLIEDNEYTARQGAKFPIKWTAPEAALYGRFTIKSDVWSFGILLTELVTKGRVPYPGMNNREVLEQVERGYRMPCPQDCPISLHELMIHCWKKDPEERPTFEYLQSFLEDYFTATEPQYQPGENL

[5] = molecular target: T1, Muscarinic acetylcholine receptor M5 (Homo sapiens, UniProt P08912); format: cell membranes, Membrane; details: cho-k1; further: in other assays of this panel Not Active means under 50% inhibition at 10 µM
T1 sequence (P08912 whole entry): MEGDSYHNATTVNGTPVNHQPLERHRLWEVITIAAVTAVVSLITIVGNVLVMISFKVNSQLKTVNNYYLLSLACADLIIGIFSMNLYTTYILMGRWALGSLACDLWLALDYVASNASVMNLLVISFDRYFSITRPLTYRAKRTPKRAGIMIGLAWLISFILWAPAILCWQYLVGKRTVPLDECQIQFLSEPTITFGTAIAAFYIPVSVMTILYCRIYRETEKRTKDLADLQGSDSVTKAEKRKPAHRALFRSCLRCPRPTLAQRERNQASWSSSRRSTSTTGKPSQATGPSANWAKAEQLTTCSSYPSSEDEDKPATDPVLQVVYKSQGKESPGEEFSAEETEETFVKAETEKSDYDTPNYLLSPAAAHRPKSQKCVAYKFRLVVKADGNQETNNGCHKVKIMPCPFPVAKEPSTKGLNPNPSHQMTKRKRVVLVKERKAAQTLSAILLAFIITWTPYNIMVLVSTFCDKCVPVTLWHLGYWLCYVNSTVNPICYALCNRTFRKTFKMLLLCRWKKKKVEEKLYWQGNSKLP

[6] = molecular target: 5-hydroxytryptamine receptor 6 (Homo sapiens, UniProt P50406); format: cell membranes, HeLa, Membrane; details: hela; further: in other assays of this panel Not Active means under 50% inhibition at 10 µM
5-hydroxytryptamine receptor 6, sequence (P50406 whole entry): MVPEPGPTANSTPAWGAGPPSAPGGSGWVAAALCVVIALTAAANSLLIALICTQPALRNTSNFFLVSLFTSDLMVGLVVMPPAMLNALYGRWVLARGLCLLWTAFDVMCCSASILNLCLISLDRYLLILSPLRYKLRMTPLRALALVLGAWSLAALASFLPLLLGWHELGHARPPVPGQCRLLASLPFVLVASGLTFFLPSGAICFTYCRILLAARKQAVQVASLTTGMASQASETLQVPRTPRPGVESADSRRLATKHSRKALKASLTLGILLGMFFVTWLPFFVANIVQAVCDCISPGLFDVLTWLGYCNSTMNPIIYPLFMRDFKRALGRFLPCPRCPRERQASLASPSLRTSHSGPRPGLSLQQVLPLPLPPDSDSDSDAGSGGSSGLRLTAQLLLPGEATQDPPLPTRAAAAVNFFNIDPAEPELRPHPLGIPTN

Melanocortin receptor 5, sequence (P33032 whole entry): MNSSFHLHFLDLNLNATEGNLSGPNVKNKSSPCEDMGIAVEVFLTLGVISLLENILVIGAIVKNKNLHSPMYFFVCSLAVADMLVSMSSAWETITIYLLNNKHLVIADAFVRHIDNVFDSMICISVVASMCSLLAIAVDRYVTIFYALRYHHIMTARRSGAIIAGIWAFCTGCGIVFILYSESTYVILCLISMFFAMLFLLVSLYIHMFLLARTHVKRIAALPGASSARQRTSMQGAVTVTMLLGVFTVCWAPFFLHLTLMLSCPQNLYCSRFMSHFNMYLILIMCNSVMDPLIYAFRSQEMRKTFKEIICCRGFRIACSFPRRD

O=C(O)c1cc(=O)c2c(OCC(O)COc3cccc4oc(C(=O)O)cc(=O)c34)cccc2o1 [CROMOLYN]
IC50 [1]: Not Active
Ki [1]: Not Active
IC50 (Melanocortin receptor 5): Not Active
IC50 [2]: Not Active
IC50 (Cytochrome P450 2D6): Not Active
Ki (Cytochrome P450 2D6): Not Active
IC50 [3]: Not Active
Ki [3]: Not Active
IC50 ([4]; insect cells): Not Active
IC50 [5]: Not Active
IC50 [6]: Not Active

CC(=O)OCC(CCn1cnc2cnc(N)nc21)COC(C)=O [FAMCICLOVIR]
IC50 [1]: Not Active
Ki [1]: Not Active
IC50 (Melanocortin receptor 5): Not Active
IC50 [2]: Not Active
IC50 (Cytochrome P450 2D6): Not Active
Ki (Cytochrome P450 2D6): Not Active
IC50 [3]: Not Active
Ki [3]: Not Active
IC50 ([4]; insect cells): Not Active
IC50 [5]: Not Active
IC50 [6]: Not Active

O=P1(N(CCCl)CCCl)NCCCO1 (stereo unspecified) [CYCLOPHOSPHAMIDE ANHYDROUS]
IC50 [1]: Not Active
Ki [1]: Not Active
IC50 (Melanocortin receptor 5): Not Active
IC50 [2]: Not Active
IC50 (Cytochrome P450 2D6): Not Active
Ki (Cytochrome P450 2D6): Not Active
IC50 [3]: Not Active
Ki [3]: Not Active
IC50 ([4]; insect cells): Not Active
IC50 [5]: Not Active
IC50 [6]: Not Active

O=c1cc(-c2ccccc2)oc2ccc3ccccc3c12 [BETA-NAPHTHOFLAVONE]
IC50 [1]: Not Active
Ki [1]: Not Active
IC50 (Melanocortin receptor 5): Not Active
IC50 [2]: Not Active
IC50 (Cytochrome P450 2D6): Not Active
Ki (Cytochrome P450 2D6): Not Active
IC50 [3]: Not Active
Ki [3]: Not Active
IC50 ([4]; read-out: IC50): 2510 nM
IC50 [5]: Not Active
IC50 [6]: Not Active

CC(C)(Sc1cc(C(C)(C)C)c(O)c(C(C)(C)C)c1)Sc1cc(C(C)(C)C)c(O)c(C(C)(C)C)c1 [PROBUCOL]
IC50 [1]: Not Active
Ki [1]: Not Active
IC50 (Melanocortin receptor 5): Not Active
IC50 [2]: Not Active
IC50 (Cytochrome P450 2D6): Not Active
Ki (Cytochrome P450 2D6): Not Active
IC50 [3]: Not Active
Ki [3]: Not Active
IC50 ([4]; insect cells): Not Active
IC50 [5]: Not Active
IC50 [6]: Not Active

CO[C@@]1(NC(=O)CSCC#N)C(=O)N2C(C(=O)O)=C(CSc3nnnn3C)CS[C@@H]21 [CEFMETAZOLE]
IC50 [1]: Not Active
Ki [1]: Not Active
IC50 (Melanocortin receptor 5): Not Active
IC50 [2]: Not Active
IC50 (Cytochrome P450 2D6): Not Active
Ki (Cytochrome P450 2D6): Not Active
IC50 [3]: Not Active
Ki [3]: Not Active
IC50 ([4]; insect cells): Not Active
IC50 [5]: Not Active
IC50 [6]: Not Active

CC(=O)O[C@]1(C(C)=O)CC[C@H]2[C@@H]3C=C(C)C4=CC(=O)CC[C@]4(C)[C@H]3CC[C@@]21C [MEGESTROL ACETATE]
IC50 [1]: Not Active
Ki [1]: Not Active
IC50 (Melanocortin receptor 5): Not Active
IC50 [2]: Not Active
IC50 (Cytochrome P450 2D6): Not Active
Ki (Cytochrome P450 2D6): Not Active
IC50 [3]: Not Active
Ki [3]: Not Active
IC50 ([4]; insect cells): Not Active
IC50 [5]: Not Active
IC50 [6]: Not Active

COc1cc(CNC(=O)CCCC/C=C/C(C)C)ccc1O [CAPSAICIN]
IC50 [1]: Not Active
Ki [1]: Not Active
IC50 (Melanocortin receptor 5): Not Active
IC50 [2]: Not Active
IC50 (Cytochrome P450 2D6): Not Active
Ki (Cytochrome P450 2D6): Not Active
IC50 [3]: Not Active
Ki [3]: Not Active
IC50 ([4]; insect cells): Not Active
IC50 [5]: Not Active
IC50 [6]: Not Active

CC(C)(C)c1ccc(S(=O)(=O)/C=C/C#N)cc1 [BAY-11-7085]
IC50 [1]: Not Active
Ki [1]: Not Active
IC50 (Melanocortin receptor 5): Not Active
IC50 [2]: Not Active
IC50 (Cytochrome P450 2D6): Not Active
Ki (Cytochrome P450 2D6): Not Active
IC50 [3]: Not Active
Ki [3]: Not Active
IC50 ([4]; insect cells): Not Active
IC50 [5]: Not Active
IC50 [6]: Not Active

CC[C@H](C)C(=O)O[C@H]1C[C@@H](C)C=C2C=C[C@H](C)[C@H](CC[C@@H]3C[C@@H](O)CC(=O)O3)[C@H]21 [LOVASTATIN]
IC50 [1]: Not Active
Ki [1]: Not Active
IC50 (Melanocortin receptor 5): Not Active
IC50 [2]: Not Active
IC50 (Cytochrome P450 2D6): Not Active
Ki (Cytochrome P450 2D6): Not Active
IC50 [3]: Not Active
Ki [3]: Not Active
IC50 ([4]; insect cells): Not Active
IC50 [5]: Not Active
IC50 [6]: Not Active

O=C(c1ccccc1Cl)N1CCC(Cc2ccccc2)CC1
IC50 [1]: Not Active
Ki [1]: Not Active
IC50 (Melanocortin receptor 5): Not Active
IC50 [2]: Not Active
IC50 (Cytochrome P450 2D6): Not Active
Ki (Cytochrome P450 2D6): Not Active
IC50 [3]: Not Active
Ki [3]: Not Active
IC50 ([4]; insect cells): Not Active
IC50 [5]: Not Active
IC50 [6]: Not Active
